Results from PubChem BioAssay AID489041 (Sanford-Burnham Center for Chemical Genomics, 2010).
Calls of active or inactive are those of the source. The rule behind the calls is not given here.

tested on: HEK-293T NF-kB luciferase reporter counterscreen, luminescence; experiment: inhibitors of HEK-293T NF-kB luciferase – HEK-293T cells, luminescence, counter-screen for T-cell antigen receptor NF-kB inhibitors, dose response (AID 489041)

Row | Structure (SMILES) | IC50
1 | CC1CC(C)CN(S(=O)(=O)c2ccc(NC(=O)c3ccc(=O)[nH]c3)cc2)C1 (centres undefined) | 12.6 µM
2 | N#Cc1ccc(-c2cccs2)nc1SCc1cccnc1 | 0.94 µM
3 | CCCc1cc(C(=O)Nc2cc(C)ccc2O)no1 | > 80 µM (inactive)
4 | COc1cc(NS(C)(=O)=O)ccc1Nc1c2ccccc2nc2ccccc12 | > 80 µM (inactive)
5 | O=C(Sc1cccc2cccnc12)c1ccccc1Br | 27.1 µM (inactive)
6 | COc1cc2c(c(OC)c1OC)-c1ccc(OC)c(=O)cc1[C@@H](NC(C)=O)CC2 | < 0.16 µM
7 | CC(C)(C)c1csc(Sc2ccc([N+](=O)[O-])cn2)n1 | 36.1 µM (inactive)
8 | COc1ccc(OC)c(COC(=O)c2cc([N+](=O)[O-])ccc2N2CCOCC2)c1 | 52.4 µM (inactive)
9 | O=C(c1ccccc1-c1ccccc1)N1CCN(c2ccccn2)CC1 | > 80 µM (inactive)
10 | O=C(NN=Cc1c(O)ccc2ccccc12)c1ccc2c(c1)OCO2 | 0.74 µM
11 | CC1(C)Cc2c(sc(NC(=O)COc3cccc4ccccc34)c2C#N)C(C)(C)N1 | > 80 µM (inactive)
12 | C=CCNC(=S)N/N=C(\C)c1ccccn1 | > 80 µM (inactive)
13 | O=C(Nc1ccc(S(=O)(=O)N2CCN(Cc3ccccc3)CC2)cc1)c1cnccn1 | 1.51 µM
14 | CCOC(=O)C(C)Oc1cccc2c(=O)n(CC(=O)NCc3ccc4c(c3)OCO4)ccc12 (centres undefined) | 2.23 µM
15 | COc1cc(-c2noc(C)c2-c2ccc3[nH]ccc3c2)cc(OC)c1OC | 2.45 µM
16 | Nc1nc2n[nH]nc2c(=O)[nH]1 | > 80 µM (inactive)
17 | Cc1ccc2c(c1)Oc1ccc(NC(=O)CCl)cc1C(=O)N2 | 2.71 µM
18 | COc1ccc2c(c1)/C(=C/c1cnc[nH]1)C(=O)N2 | 0.7 µM
19 | Cc1cc(C)cc(C(=O)N2CC(=O)Nc3ccccc32)c1 | 4.64 µM
20 | CCOC(=O)c1ccccc1NC(=O)Cn1c(-c2nonc2N)nc2ccccc21 | 0.47 µM
21 | O=C(OCCN1C(=O)c2cccc3c(N4CCOCC4)ccc(c23)C1=O)c1ccc(Cl)cc1 | 7.66 µM
22 | Cc1ccc(C(=O)c2cc([N+](=O)[O-])ccc2N2CCCCC2)c(C)c1 | 7.17 µM
23 | COC(=O)Nc1ccc(S(=O)(=O)N2c3ccccc3CCC2C)cc1 (centres undefined) | 13.1 µM
24 | COC(=O)Nc1ccc(S(=O)(=O)N2CCCc3ccccc32)cc1 | 11.9 µM
25 | COc1cccc(/C=N/NC(=O)c2[nH]nc3c2CCc2ccccc2-3)c1O | 0.21 µM
26 | CC1(C)C[C@H]2C=C(C=O)[C@]3(C=O)C[C@]3(C)[C@H]2C1 | 31.1 µM (inactive)
27 | CCCCc1ccc(NC(=O)c2ccc(N(C)S(C)(=O)=O)cc2)cc1 | > 80 µM (inactive)

Row | Structure (SMILES) | IC50
28 | CCOc1ccc(S(=O)(=O)N2c3ccccc3CC2C)cc1 (centres undefined) | 5.98 µM
29 | Nc1nc(Cl)cc(N2CCC(c3cc(-c4ccc(Cl)cc4)n[nH]3)CC2)n1 | 2.44 µM
30 | CCCCCCCCn1c2c(c(=N)c3ccccc31)CCC2 | 1.39 µM
31 | CC(=O)N1c2ccc(S(=O)(=O)N3CCC(C(=O)Nc4cccc(C)n4)CC3)cc2CC1C (centres undefined) | 5.57 µM
32 | CCOC(=O)COc1cccc2c(=O)n(CC(=O)NCc3ccc(F)cc3)ccc12 | < 0.16 µM
33 | Cc1ccc2c(c1)COc1c3ccc(C(=O)O)cc3nn1-2 | 12.9 µM
34 | CCN(CC)S(=O)(=O)c1cc(NC(=O)CNc2cccc(S(=O)(=O)N3CCCC3)c2)ccc1C | 2.52 µM
35 | CCOC(=O)c1ccccc1NS(=O)(=O)c1ccc(OCC)cc1 | 17.7 µM
36 | COc1ccc(Nc2cc(C)nc(-n3nc(C)cc3C)n2)cc1 | 6.55 µM
37 | Cn1ncnc2c(=O)n(C)c(=O)nc1-2 | 1.11 µM
38 | Cc1ccc2[nH]c3c(c2c1)CCCC3NC(=O)CCl (centres undefined) | 7.68 µM
39 | Cc1nc(SCC(=O)Nc2nc3ccccc3s2)c(C#N)c(C)c1C | < 0.16 µM
40 | CCCCOc1ccc(Br)cc1/C(C)=N/NC1=NCCN1 | 6.14 µM
41 | CCOC(=O)c1[nH]c2c(c1C)C(=O)CC(c1ccco1)C2 (centres undefined) | 4.38 µM
42 | COC(=O)c1ccccc1NC(=O)Cn1c(-c2nonc2N)nc2ccccc21 | 3.77 µM
43 | Cc1ncoc1C(=O)NC1CCCc2c1cnn2-c1ccc(C(C)(C)C)cc1 (centres undefined) | 3.41 µM
44 | Cc1cccc(N2CCN(C(=O)c3c(-c4ccccc4)noc3C)CC2)c1C | 11.1 µM
45 | COc1ccc(C(=O)N2CCN(c3ccc([N+](=O)[O-])c(NCCc4ccc(OC)c(OC)c4)c3)CC2)cc1 | 0.31 µM
46 | CCOc1ccccc1N1CC(O)=C(c2nc3ccccc3s2)C1=N | 8.73 µM
47 | COC(=O)C(Cc1ccc(N(CCCl)CCCl)cc1)N=Cc1ccccc1O (centres undefined) | 43.4 µM (inactive)
48 | COc1ccc(OC)c(-c2nnc3n2N=C(c2ccc(OC)c(OC)c2)CS3)c1 | 0.65 µM
49 | CC1(C)Cc2nc3sc4c(=O)n(CC(=O)NCc5ccccc5)cnc4c3cc2CO1 | > 80 µM (inactive)
50 | CCCCS(=O)(=O)/C=C\C=C/S(=O)(=O)CCCC | 20.2 µM (inactive)
51 | CN(C)c1ccc2c(c1)OC(N)=C(C#N)C2c1cccc(F)c1 (centres undefined) | 1.45 µM
52 | CCCCCCCOc1ccc(OC(=O)c2cccnc2)cc1 | > 80 µM (inactive)
53 | CCOC(=O)c1ccc2nc(Nc3nc4ccc(F)cc4s3)sc2c1 | 1.14 µM
54 | Cc1ccnc2c1ccc1c(C)ccnc12 | > 80 µM (inactive)

Row | Structure (SMILES) | IC50
55 | CCCCCCCCCn1c2c(c(=N)c3c1CCC3)CCCC2 | 0.68 µM
56 | Cc1ccc(NC(=O)C2=C(c3ccccc3)S(=O)(=O)CCS2(=O)=O)cc1 | 8.74 µM
57 | Cc1cc(C)nc(SCC(=O)Nc2ccnc3ccccc23)n1 | 9.08 µM
58 | CCN(CC)c1ccc(-c2nn3c(-c4ccccc4OC)nnc3s2)cc1 | 1.87 µM
59 | COc1ccccc1CNS(=O)(=O)c1ccc(-c2cc(C)no2)cc1 | 8.48 µM
60 | O=C(c1ccc(Cl)cc1)c1cc([N+](=O)[O-])ccc1N1CCOCC1 | 11.9 µM
61 | CCCOc1ccccc1C1CC(=O)Nc2cc3c(cc21)OCO3 (centres undefined) | 2.25 µM
62 | CN1/C(=C\C(=O)C[n+]2ccc3ccccc3c2)C(C)(C)c2ccccc21 | 4.62 µM
63 | COCCCNC(=O)C(=O)Nc1ccc2c(c1)N(S(=O)(=O)c1cccs1)CCC2 | 11.7 µM
64 | CCOc1ccc(N(C)S(=O)(=O)c2ccc(-c3cc(C)no3)s2)cc1 | 7.17 µM
65 | CC(=O)c1ccc(N2CCN(S(=O)(=O)c3ccc4c(c3)CC(C)N4C(=O)C3CC3)CC2)cc1 (centres undefined) | 3.06 µM
66 | CS(=O)(=O)c1ccc(Sc2nc3ccccc3s2)c([N+](=O)[O-])c1 | 17.1 µM
67 | COc1ccc(NC(=O)/C(Cl)=C(/Cl)S(=O)Cc2ccc(C)cc2)cn1 (centres undefined) | 5.5 µM
68 | CCOC(=O)c1ccc(Nc2nc(N)c3cc(OC)c(OC)cc3n2)cc1 | > 80 µM (inactive)
69 | O=C(/C=C/c1cccc([N+](=O)[O-])c1)n1cnc2ccccc21 | 51.3 µM (inactive)
70 | CNC[C@@H](CC1CCCCC1)NC[C@H](CC(C)C)NCCc1cccc(C(F)(F)F)c1 | 12.8 µM
71 | O=C(Nc1ncc(Cc2ccc(SC(F)F)cc2)s1)c1ccc(OC(F)F)cc1 | 3.66 µM
72 | CCOc1cc(C(=O)N/N=C/C(Br)=C/c2ccccc2)cc(OCC)c1OCC | 1.11 µM
73 | COc1ccc(NC(=O)/C(Cl)=C(/Cl)S(=O)Cc2ccccc2)cn1 (centres undefined) | 8.71 µM
74 | Cc1cccc(N2CCN(C(=O)c3c(-c4ccccc4Cl)noc3C)CC2)c1C | 6.03 µM
75 | COc1cc(C(=O)N2CCN(c3cc(Cl)ccc3Cl)CC2)cc(OC)c1OC | 3.01 µM
76 | COc1cc(-c2c(-c3cc(OC)c(OC)c(OC)c3)noc2C)ccc1F | 0.72 µM
77 | CC(C)(C)c1ccc(C(=O)O/N=C(\N)c2ccccc2)cc1 | 0.31 µM
78 | O=C(c1ccccc1)c1cc([N+](=O)[O-])ccc1N1CCOCC1 | 17.1 µM
79 | Cc1cccc(OCCNC(=O)c2ccc(Cl)c(S(=O)(=O)NCc3cccnc3)c2)c1 | 10.1 µM
